The NIST ThermoML archive (doi:10.1021/acs.jced.6b00526)

Test: xn = mol fraction of the nth substance listed
Details: 100 kPa, Liquid; for mass density: Vibrating tube method; for viscosity: Falling or rolling sphere viscometry

OCCCCCO [1,5-pentanediol] + O
Details	mass density, 288.15 K [kg/m3]	mass density, 293.15 K [kg/m3]	mass density, 298.15 K [kg/m3]	mass density, 303.15 K [kg/m3]	mass density, 308.15 K [kg/m3]	mass density, 313.15 K [kg/m3]	mass density, 318.15 K [kg/m3]	viscosity, 293.15 K [mPa·s]	viscosity, 298.15 K [mPa·s]	viscosity, 303.15 K [mPa·s]
x2 = 0	992.2	989.2	986.2	983.2	980.3	977.4	974.8	118.7	86.79	68.3
x2 = 0.1326	995.2	992.1	989	985.9	982.9	979.9	977.3	–	–	–
x2 = 0.2201	997	993.9	990.8	987.7	984.7	981.7	979	–	–	–
x2 = 0.2345	997.3	994.2	991	988	985	982	979.3	–	–	–
x2 = 0.2586	–	–	–	–	–	–	–	92.52	70.36	54.61
x2 = 0.3	–	–	–	–	–	–	–	85.43	65.59	51.03
x2 = 0.3001	998.6	995.5	992.4	989.3	986.3	983.3	980.6	–	–	–
x2 = 0.406	1000.7	997.6	994.5	991.4	988.5	985.5	982.8	–	–	–
x2 = 0.4864	–	–	–	–	–	–	–	51.43	39.51	31
x2 = 0.4969	1002.6	999.5	996.4	993.4	990.5	987.6	985	49.66	38.56	30.24
x2 = 0.5262	1003.2	1000.2	997.1	994.1	991.2	988.3	985.7	–	–	–
x2 = 0.5488	1003.7	1000.7	997.7	994.7	991.8	988.9	986.3	–	–	–
x2 = 0.6032	1004.8	1001.9	998.9	996	993.1	990.2	987.6	–	–	–
x2 = 0.6777	–	–	–	–	–	–	–	25.01	19.75	15.78
x2 = 0.7012	1006.6	1003.8	1000.9	998	995.2	992.3	989.8	–	–	–
x2 = 0.7611	–	–	–	–	–	–	–	16.1	12.71	10.16
x2 = 0.7745	1007.1	1004.6	1001.9	999.1	996.4	993.7	991.2	–	–	–
x2 = 0.8051	1007	1004.6	1002.1	999.5	996.7	994.1	991.6	–	–	–
x2 = 0.8474	–	–	–	–	–	–	–	8.205	6.627	5.439
x2 = 0.8998	1005.3	1003.2	1000.9	998.6	996.3	993.9	992	–	–	–
x2 = 0.9205	–	–	–	–	–	–	–	3.733	3.103	2.615
